In PMC6259748, “Selection of Peptides Targeting Helix 31 of Bacterial 16S Ribosomal RNA by Screening M13 Phage-Display Libraries” (Molecules, 2011):
Entries after “also recorded” stand apart in the source; their conditions may differ.

Columns and labels:
wild-type modified h31 [1] = test: surface plasmon resonance (SPR), modified h31; assay type: binding, E. coli; conditions: for ka (association rate constant) / kd (dissociation rate constant): 1:1 Langmuir, 150 mM NaCl, 50 μL/min, 25 °C, CM5 chip; for ka (association rate constant): 10 mM Tris·HCl, 10 mM MgCl2, 1 mM DTT, 0.005% P20, pH 7.5; for kd (dissociation rate constant): pH 7.5, 10 mM MgCl2
Protocol: Modified h31 was labeled with biotin in order to immobilize the RNA onto a surface and determine the kinetics of peptide binding by surface plasmon resonance (SPR). […] In order to enhance the signal-to-noise ratio, a GFP-protein-fused peptide, TYLPWPA-GFP, was generated and used as the analyte.
Biotinylated, modified h31 RNA was immobilized onto a streptavidin-coated CM5 chip and differing concentrations of TYLPWPA-GFP (10–100 µM) were injected as the analyte. A range of salt concentrations, detergent levels, pH conditions, and flow rates were tested, since these factors affect the peptide-RNA complex formation (data not shown). The apparent dissociation constants were determined under the following optimized conditions: 10 mM Tris·HCl, 150 mM NaCl, 10 mM MgCl2, 1 mM dithiothreitol (DTT), 0.005% (v/v) P20 at pH 7.5 as the running buffer at a flow rate of 50 μL/min.
All immobilization and subsequent binding studies were performed using a BIAcore 2000 instrument set at a temperature of 25 °C. Standard dextran surface BIAcore sensorchips (Sensor chip CM5) were purchased from BIAcore (GE Healthcare, Piscataway, NJ). Standard desorb and sanitize routines were performed according to the BIAcore guidelines before docking a new CM5 sensor chip. All buffers were filtered through sterile 0.2 μm nylon membranes (Millipore™) under vacuum. Before derivatizing the flow cells with streptavidin, the CM5 sensor chip was pre-conditioned using three successive 10 μL injections of chip-preparation solution (10 mM NaOH, 500 mM NaCl) at 100 μL/min, followed by a normalization routine using BIAnormalizing solution (40% glycerol). Streptavidin derivatization was performed according to standard procedures.
Prior to immobilization, the solution of biotinylated RNA in HBS-EP buffer (10 mM HEPES, 3 mM EDTA, 150 mM NaCl, 0.005% P20 at pH 7.4) was renatured by heating to 90 °C for 2 min, cooling gradually to room temperature, and placing on ice. Flow cells were functionalized by injecting 30 μL of RNA at a time using the MANUAL INJECT command at a flow rate of 10 μL/min, until the desired immobilization level was reached. One of the flow cells was used to immobilize RNA, while the adjacent cell remained unmodified to serve as a blank-control for matrix effects. Levels of RNA captured were calculated by subtracting […] for each flow cell. After RNA immobilization, both flow cells were blocked with 100 μL of 1 mg/mL biotin at 5 μL/min.
For the SPR experiments, the peptides were cloned into plasmid pBacEmGH (Cunningham Lab, to be described elsewhere) under transcriptional regulation of a PBAD promoter. Upon induction with L-arabinose, the resulting construct produces a fusion protein in which the peptide is fused to the N-terminus of EmGFP containing a C-terminus 6 x His affinity tag (PEP-EmGFP-6 x His).
Peptide samples were prepared by serial dilutions from stock solutions. Dilutions were made in running buffer (10 mM Tris·HCl, 150 mM NaCl, 10 mM MgCl2, 1 mM DTT, 0.005% (v/v) P20 at pH 7.5). All procedures for binding were automated, as optimized methods using repetitive cycles of sample injection and regeneration. Typically, running buffer was injected for ~30 min prior to experiment to establish a stable baseline value. Peptide solutions (200 μL) were injected at a kinetic flow rate of 50 μL/min, using the KINJECT command. All peptide samples were injected from 7 mm plastic vials (BIAcore) that were capped with pierceable plastic-crimp-caps to minimize carry-over and sample evaporation. Samples were injected in order of increasing concentration. The surface was regenerated using 150 μL of 500 mM NaCl. The data were fit to a 1:1 binding Langmuir model using BIAevaluation 3.0 software. […]

unmodified h31 = test: surface plasmon resonance (SPR), unmodified h31; assay type: binding, E. coli; conditions: analyte 1 μM; ~200 fmoles RNA immobilized; injection time 1 min
Protocol: All immobilization and subsequent binding studies were performed using a BIAcore 2000 instrument set at a temperature of 25 °C. Standard dextran surface BIAcore sensorchips (Sensor chip CM5) were purchased from BIAcore (GE Healthcare, Piscataway, NJ). Standard desorb and sanitize routines were performed according to the BIAcore guidelines before docking a new CM5 sensor chip. All buffers were filtered through sterile 0.2 μm nylon membranes (Millipore™) under vacuum. […]
Prior to immobilization, the solution of biotinylated RNA in HBS-EP buffer (10 mM HEPES, 3 mM EDTA, 150 mM NaCl, 0.005% P20 at pH 7.4) was renatured by heating to 90 °C for 2 min, cooling gradually to room temperature, and placing on ice. […] Levels of RNA captured were calculated by subtracting response units after injection from response units before injection for each flow cell. […]
Kinetic constants were determined by integration of the experimental data using the differential rate equation dRU/dt = ka·C·(RUmax-RU)-kd·RU to obtain ka and kd values simultaneously (RU = observed response, RUmax = maximum response upon saturation, C = analyte concentration, ka = association rate constant, kd = dissociation rate constant). […]

wild-type modified h31 [2] = test: surface plasmon resonance (SPR), modified h31; assay type: binding, E. coli; conditions: SPR kinetic analysis, 1:1 Langmuir; pH 7.5; 150 mM NaCl, 10 mM MgCl2; 50 μL/min; 25 °C; analyte 0–1 μM
[3] = system: translation of green fluorescent protein (GFP); test: coupled in vitro transcription-translation inhibition assay (GFP); assay type: biochemical, E. coli
Protocol: A cell-free translation assay was used to test the potential inhibitory effects of the peptides on protein synthesis. Different concentrations of peptides were added to E. coli S30 extracts and the extent of inhibition was monitored by the measurement of green fluorescent protein (GFP) translation.
The inhibitory effects of selected peptides (DIRTQRE, CVRPFAL, FVRPFAL, TLWDLIP and TYLPWPA) on cellular processes were determined by in vitro coupled transcription-translation inhibition assay. The PURExpress™ in vitro protein synthesis kit #E6800S from New England Biolabs (Beverly, MA) was used for this purpose. A DNA template for GFP (pRSETEmGFP plasmid, Invitrogen) was employed at a concentration of 10 µg/mL in a 15 µL of reaction volume. Different concentrations of peptides were added, ranging from 300 µM to 2 mM. The DNA template was added only after mixing of the peptides or streptomycin so that they could bind to their target region first. For the control, streptomycin was added at a final concentration of 300 µM. The reaction was incubated in 384-well, Costar, clear-well, black plates and in situ incubated at 37 °C in a Gemini XPS microplate spectrofluorometer (Molecular Devices, Sunnyvale, CA) and the amount of GFP produced was monitored at different time intervals from 0 min to 2 h by fluorescence (excitation at 487 nm, emission at 509 nm).

[4] = system: GFP-S11-labeled 30S subunits; test: ribosome-binding assay on Tentagel beads; parameters: species or system E. coli
Protocol: The purpose of this experiment was to determine whether the selected peptides have affinity for bacterial ribosomes. The binding affinities of various peptides could also be compared by this method. Small ribosomal subunits, 30S, labeled with GFP on ribosomal protein S11 were added to peptides covalently attached to Tentagel beads (Figure 4A). […] The peptides were chemically synthesized on Tentagel beads with their N-termini exposed. Increasing concentrations of GFP-tagged 30S subunits were added to the Tentagel-bound peptides and unbound 30S subunits were removed by washing. Relative fluorescence intensity of the 30S subunits bound to the peptides on bead was determined by imaging on a fluorescence microscope, with the assumption that the level of fluorescence on the beads was proportional to the affinity of the ribosome for the peptide sequence.
Four peptides isolated from the phage-display experiment, […], DIRTQRE, TLWDLIP, and […], were synthesized on Tentagel (Rapp Polymer, Tübingen, Germany) beads using standard Fmoc synthesis. The beads were stored in DMF until use. The beads were then washed three times with 450 μl of water, and three times with 450 μL of the binding buffer B (binding buffer: 20 mM HEPES, pH 7.3, 10 mM MgCl2, 100 mM KCl), using 0.45 μm MWCO Nanosep (Pall Corporation, Ann Arbor, MI). The beads were then centrifuged at 6,000 rpm for 1–2 min.
(§1) Fluorescently labeled 30S subunits were isolated by sucrose gradient centrifugation in 5 mM Mg^2+ [82]. For control experiments, His(6)-EmGFP-S11 was purified using IMAC resin (Bio-Rad, Hercules, CA) and the fluorescence was assayed using beads carrying peptides with ribosomes, beads carrying peptides with His(6)-EmGFP-S11 (no ribosomes) and beads only with ribosomes (no peptides).
(§2) The fluorescent ribosomes were incubated in binding buffer B (20 mM HEPES, pH 7.3, 10 mM MgCl2, 100 mM KCl) at 37 °C for 30 min. Next, 25 pmoles of ribosome solution was added to each peptide, and the mixture was incubated overnight at 4 °C with agitation. Unbound ribosomes were removed by two 450 μL washes with binding buffer B and centrifugation at 6,000 rpm for 1–2 min. The beads were resuspended in 40 μL of binding buffer B for microscope screening and kept on ice until scanning. The beads (20 μL) were spread on microscope slides for scanning (Olympus 1X71 microscope, TH4 100 Olympus lamp, Olympus UCMAD 3 camera, 20× magnification). An average of two pictures were taken per slide, eliminating beads presenting uneven swelling and cracks.

His(6)-EmGFP-S11 protein = test: bead control with S11-emGFP protein (no ribosomes); assay type: binding, E. coli; conditions: purified His(6)-EmGFP-S11 added to peptide on beads
Protocol: The fluorescence intensity of each set of beads containing the selected peptides was quantified.
as §1, §2

Row | Substance | ka (association rate constant) (wild-type modified h31 [1]) | kd (dissociation rate constant) (wild-type modified h31 [1]) | binding interaction with unmodified h31 (unmodified h31) | KD (kd/ka) (wild-type modified h31 [2]) | inhibition of in vitro protein synthesis ([3]; cell-free translation, summary statement) | order of translation inhibition by peptides (from high to low) ([3]; peptides at 1 mM, 37 °C, GFP fluorescence) | order of binding preference by the 30S subunits (from high to low) ([4]; Tentagel beads, fluorescence microscopy, pH 7.3) | fluorescence on beads after 30S binding ([4]; peptide on Tentagel beads, 30S subunits overnight at 4 °C, 20 mM HEPES, pH 7.3, 10 mM MgCl2, 100 mM KCl, duplicate) | fluorescence on beads with S11-emGFP protein (His(6)-EmGFP-S11 protein) | binding affinity to modified h31 (wild-type modified h31 [1]; in words, comparable to known antibiotics targeting 16S rRNA)
1 | CVRPFAL-GFP | (120 ± 1) × 10^2 M^-1s^-1 | (2.6 ± 0.02) × 10^-3 s^-1 | did not reveal any binding interactions; also recorded: No binding interaction was detected |  |  |  |  |  |  | 
2 | TLWDLIP-GFP | (93 ± 2) × 10^2 M^-1s^-1 | (3.1 ± 0.3) × 10^-3 s^-1 |  | 330 ± 7 nM |  |  |  |  |  | 
3 | TLWDLIP [heptapeptide selected against modified h31, with and without counter selection] |  |  |  |  | inhibit in vitro protein synthesis | CVRPFAL ≈ FVRPFAL > TLWDLIP > TYLPWPA > DIRTQRE | TYLPWPA > CVRPFAL ≈ TLWDLIP > DIRTQRE | Fluorescence is observed | did not show any fluorescence; also recorded: fluorescence was not observed | high nM
